Data taken from patent publication US9428542B2, “Lupane triterpenoid derivatives and pharmaceutical use thereof” (priority 2012, dated 2016).
pIC50: −log10 of the molar value.

Experiments:
HIV-1IIIB = assay: HIV-1 full replication assay (HIV-1IIIB-infected MT-2 cells, supernatant read out on TZM-bl cells, β-Gal); format: cell-based; settings: Human immunodeficiency virus 1, MT2, 72 h, inhibiting HIV-1IIIB replication in MT-2 cells, 3 days; read-out: IC50 (PM)
Description: The antiviral activity of the compounds of the present invention was determined in a HIV-1 full replication assay.
In this assay, MT-2 cells that are infected with HIV-1IIIB were co-cultured with different concentration of the tested compounds for 3 days and then supernatant is transferred into new 384-well plates containing TZM-bl cells (also called JC53-bl). TZM-bl cells that could be infected by various kinds of HIV-1 strains stably express a great amount of HIV-1 receptor, co-receptor CD4 molecular, and co-receptor CXCR4 and CCR5. TZM-bl cells harbor LTR-luciferase and β-gal two report genes. The expression of luciferase and β-gal reporter directed by HIV-1 LTR can be activated by Tat protein generated after HIV infection, and the quantity of expression is proportional to the quantity of HIV-1. Compounds that interfere with virus replication in MT-2 cells, maturation of the virus, or post-entry steps in the HIV lifecycle decrease the luciferase signal or β-gal signal. In this experiment, BVM (Bevirimat, PA-457) is used as a positive control drug.
Method for Inhibiting HIV-1 Replication Assay:
The MT-2 cells are infected at a Multiciplicity (MOI) of 0.01 TCID50, and then the MT-2 cells suspension was diluted to a needed concentration. 90 μl of the MT-2 cells suspension from above was added into 384-well plates containing 10 μl of the tested compounds.
Compounds were dissolved in DMSO and tested as 11 points 3-fold serial dilutions. After addition of cells to compound plates, plates were placed to humidified 5% CO2 37 incubator for 3 days. 10 μl of cells culture supernatant from the incubated plates was transferred into new black 384-well plates.
Adjusted the TZMb1 cells concentration and 40 μl of TZMb1 cells was added into each well in the black 384-well plates. After addition of the TZMb1 cells to the black plates, black plates were placed to humidified 5% CO2 37 incubator for 24 h, then β-Gal activity was measured.
The anti viral activity %=(measured number-lowest mean number)/(highest mean number-lowest mean number)×100. The IC50 values were calculated by Median Equation and the IC curve was generated by Graphpad Prism V 5.03.
(§1) TC50 is referred to the toxicity in MT-2 cells by the compounds tested at 50% concentration; IC50 is referred to the inhibiting HIV-1IIIB replication in MT-2 cells by the compounds tested at 50% concentration; Therapeutic Index (TI)=TC50/IC50.

MT-2 cells = assay: Compounds' cytotoxicity assay in MT-2 cells (CellTiter-Glo); format: cell-based; design: unit not given here; settings: toxicity in MT-2 cells, 3 days
Description: 3. Method for Compounds' Cytotoxicity Assay:
The MT-2 cells are diluted to a needed concentration. 90 μl of the MT-2 cells suspension was added into 384-well plates containing 10 μl of the tested compounds. Compounds were dissolved in DMSO and tested as 11 points 3-fold serial dilutions. After addition of cells to compound plates, plates were placed to humidified 5% CO2 37 incubator for 3 days. The Luciferase activity was measured by CellTiter-Glo® Luminescent Cell Viability Assay kit (Promega Corp., WI, USA).
as §1

Compound | pIC50 (HIV-1IIIB) | TC50 (PM) (MT-2 cells)
CC(C)C1=C2[C@H]3CC[C@@H]4[C@@]5(C)CC[C@H](OC(=O)CC(C)(C)C(=O)O)C(C)(C)[C@@H]5CC[C@@]4(C)[C@]3(C)CC[C@@]2(c2cc(=O)n(-c3ccc(C#N)cc3)n2C)CC1=O [Compound 98-4] | 9.09 | 36
CC(C)C1=C2[C@H]3CC[C@@H]4[C@@]5(C)CC[C@H](OC(=O)CC(C)(C)C(=O)O)C(C)(C)[C@@H]5CC[C@@]4(C)[C@]3(C)CC[C@@]2([C@@H](O)c2nnc(-c3ccc(Cl)cn3)o2)CC1=O [Compound 127-3] | 9.22 | 33
CC(C)C1=C2[C@H]3CC[C@@H]4[C@@]5(C)CC[C@H](OC(=O)CC(C)(C)C(=O)O)C(C)(C)[C@@H]5CC[C@@]4(C)[C@]3(C)CC[C@@]2(Nc2nnc(-c3ccc(Cl)cc3)o2)CC1=O [Compound 141-1] | 8.26 | 26
CC(C)C1=C2[C@H]3CC[C@@H]4[C@@]5(C)CC[C@H](OC(=O)CC(C)(C)C(=O)O)C(C)(C)[C@@H]5CC[C@@]4(C)[C@]3(C)CC[C@@]2([C@H](O)c2nnc(-c3ccc(Cl)cn3)o2)CC1=O [Compound 127-4] | 7.42 | 200
CC(C)C1=C2[C@H]3CC[C@@H]4[C@@]5(C)CC[C@H](OC(=O)CC(C)(C)C(=O)O)C(C)(C)[C@@H]5CC[C@@]4(C)[C@]3(C)CC[C@@]2(c2cc(=O)n(-c3ccc(Cl)cc3)n2C)CC1=O [Compound 98-1] | 8.80 | 24
CC(C)C1=C2[C@H]3CC[C@@H]4[C@@]5(C)CC[C@H](OC(=O)CC(C)(C)C(=O)O)C(C)(C)[C@@H]5CC[C@@]4(C)[C@]3(C)CC[C@@]2(c2nnc(-c3ccncc3)o2)CC1=O [Compound 27-13] | 7.77 | 200
CC(C)C1=C2[C@H]3CC[C@@H]4[C@@]5(C)CC[C@H](OC(=O)CC(C)(C)C(=O)O)C(C)(C)[C@@H]5CC[C@@]4(C)[C@]3(C)CC[C@@]2(Cc2cc(=O)n(-c3ccc(Cl)cn3)n2C)CC1=O [98′-2] | 9.43 | 56
CC(C)C1=C2[C@H]3CC[C@@H]4[C@@]5(C)CC[C@H](OC(=O)CC(C)(C)C(=O)O)C(C)(C)[C@@H]5CC[C@@]4(C)[C@]3(C)CC[C@@]2(Cc2nnc(-c3ccc(Cl)cc3)n2CCN)CC1=O [Compound 116-4] | 8.60 | 33
CC(C)C1=C2[C@H]3CC[C@@H]4[C@@]5(C)CC[C@H](OC(=O)CC(C)(C)C(=O)O)C(C)(C)[C@@H]5CC[C@@]4(C)[C@]3(C)CC[C@@]2(Cc2nnc(-c3ccc(Cl)cc3)n2CCN(C)C)CC1=O [Compound 116-1] | ≥ 9.77 | 35
CC(C)C1=C2[C@H]3CC[C@@H]4[C@@]5(C)CC[C@H](OC(=O)CC(C)(C)C(=O)O)C(C)(C)[C@@H]5CC[C@@]4(C)[C@]3(C)CC[C@@]2(c2nnc(Nc3ccc(Cl)cc3)o2)CC1=O [Compound 133-1] | 8.00 | 21
CC(C)C1=C2[C@H]3CC[C@@H]4[C@@]5(C)CC[C@H](OC(=O)CC(C)(C)C(=O)O)C(C)(C)[C@@H]5CC[C@@]4(C)[C@]3(C)CC[C@@]2(Cc2nnc(-c3ccc(Cl)cn3)o2)CC1=O [Compound 22-3] | 8.80 | 36
